Source: PMC11050443, “Discovery of Strong 3-Nitro-2-Phenyl-2H-Chromene Analogues as Antitrypanosomal Agents and Inhibitors of Trypanosoma cruzi Glucokinase” (International Journal of Molecular Sciences, 2024)
Several values for one entry are separate records, joined by “and”; a condition that tells them apart may be missing. Identical values can stand only once.

What was measured:
TcGlcK = tested on: TcGlcK; set-up: method as in PMID 31133533; conditions: earlier HTS campaign of 13,040 compounds; cited from earlier work
[1] = tested on: T. cruzi (Tulahuen strain) infective form co-cultured in NIH-3T3 fibroblasts; test: In vitro T. cruzi biological assay (β-galactosidase/CPRG); format: cell-based, Trypanosoma cruzi; conditions: for IC50: Tulahuen strain infective form growth inhibition co-cultured in NIH-3T3 fibroblasts, 4 days, N = 3; for T. cruzi growth inhibition (in words): efficacy in IC50
Description: General methods for the preparation of in vitro cell cultures involving T. cruzi parasites and mammalian cells along with the exposure to inhibitors has previously been described by Andriani and colleagues. T. cruzi (Tulahuen strain) that expresses β-galactosidase was harvested by centrifugation at 2500 rpm for 7 min. Parasites were rinsed twice with DMEM lacking phenol red and supplemented with 2% fetal bovine serum (FBS) and 1% penicillin—streptomycin—L-glutamine (PSG); the final concentrations of the PSG components were 100 U/mL penicillin, 0.1 mg/mL streptomycin, and 0.292 mg/mL L-glutamine. It was necessary to exclude phenol red since it interferes with the absorbance reading at λ = 590 nm. The parasites were centrifuged again for 7 min at 2500 rpm and the 50 mL tubes were carefully removed from the centrifuge. The tubes were placed on a rack with an incubator so that the trypomastigotes would move out of the pellet in a timeframe of 3–5 h. During this period, 100 μL of NIH-3T3 cells (50,000 cells) were plated per well in a transparent, clear, flat-bottom, and sterile 96-well microplate. This plate was placed in an incubator for 3 h at 37 °C to allow the cells to attach. The 3-nitro-2-phenyl-2H-chromene compounds (inhibitors) that were prepared as 10.0 mM stock solutions in 100% DMSO were thawed from −80 °C to room temperature. The compound solutions were diluted to their desired working concentrations, which ranged from 0.0781–10.0 μM. This was accomplished by serial dilution using a 2-fold dilution. A total of 100 μL of parasites was added to each well, which contained 50,000 trypomastigotes, and were incubated for 4 days. Using a multichannel pipette, 50.0 μL of the substrate solution [500 μM CPRG in phosphate buffered saline supplemented with 0.5% detergent NP-40] was added to each well of the 96-well microplate. The plate was placed into an incubator for 4 h followed by measuring absorbance readings at λ = 590 nm using a Victor Nivo multimode microplate reader (PerkinElmer, Inc.; Shelton, CT, USA). All measurements were performed in triplicate; absorbance values were proportional to parasite cell viability. IC50 determinations for percent growth inhibition were processed using GraphPad Prism 10.0. Amphotericin B was used as a positive control, the final solution concentration of which was 4.0 μM (prepared as a 270 μM stock solution). Four control conditions were carried out, as follows: (a) NIH-3T3 cells and parasites, (b) NIH-3T3 cells without parasites, (c) NIH-3T3 cells, parasites, and 4.0 μM amphotericin B, and (d) the medium alone.

NIH-3T3 fibroblasts = test: In vitro cytotoxicity assay of mammalian NIH-3T3 fibroblasts (Alamar blue); format: cell-based; conditions: NIH-3T3 fibroblast growth inhibition, host cell toxicity; 4 days; N = 3
Description: The in vitro cell culturing of mammalian NIH-3T3 fibroblasts following treatment with inhibitors to assess for cytotoxicity has previously been described. DMEM lacking phenol red and supplemented with 2% FBS and 1% PSG was warmed up. NIH-3T3 cells were trypsinized, as described in the cell culture protocol. When cells became detached, they were harvested in DMEM lacking phenol red and including 2% FBS and 1% PSG. The cells were centrifuged at 1000 rpm for 5 min, the medium was discarded, and the cells were resuspended in fresh DMEM lacking phenol red and including 2% FBS and 1% PSG. The cells were centrifuged at 1000 rpm for 5 min, resuspended in the medium, counted, and diluted to 500,000 cells/mL. Dilution was accomplished by transferring the stock number of cells into a sterile basin and 100 μL of cells was added to each well of a transparent, sterile, flat-bottom, 96-well microplate (50,000 cells/well) using a multichannel pipette. The plate was placed into the incubator for 3 h to allow cells to attach. The 3-nitro-2-phenyl-2H-chromene compounds were thawed from −80 °C to room temperature. The compounds were prepared as 10.0 mM stock solutions in 100% DMSO. A volume of 2.0 μL of a given compound plus a volume of 98.0 μL of fresh media were both added to a well in the first row of the 96-well microplate; this was performed for each compound to be tested. The solutions were mixed with a micropipette, followed by the transfer of 100 μL to the next row and repeated. The compound solutions ranged from 0.0139–30.3 μM and this was accomplished by serial dilution using a 3-fold dilution. After incubation for 4 days, 10.0 μL of Alamar blue was added to each well. Absorbance readings were measured using a Victor Nivo multimode microplate reader (PerkinElmer, Inc.; Shelton, CT, USA) at λ = 590 nm. All measurements were performed in triplicate and TC50 determinations for percent growth inhibition were carried out using GraphPad Prism 10.0. The final volume per well of cells and a given compound was 100 μL and this volume became 110 μL after the addition of Alamar blue. The detergent SDS was used as a positive control and its final solution concentration was 0.1%. Three controls were carried out, as follows: (a) NIH-3T3 cells alone, (b) perished NIH-3T3 cells (NIH-3T3 cells in the presence of 0.1% SDS), and (c) the medium alone.

[2] = Trypanosoma cruzi, TULAHUEN, NIH3T3, 96 h

Compound	IC50 (TcGlcK) [nM]	IC50 [1, 2] [nM]	IC50 [1] [nM]	NIH-3T3 TC50 (NIH-3T3 fibroblasts)	T. cruzi growth inhibition (in words) [1]
CCOc1ccc(C2Oc3ccc(Br)cc3C=C2[N+](=O)[O-])cc1OC (stereo not shown) [Compound 1, 6-Bromo-2-(4-ethoxy-3-methoxyphenyl)-3-nitro-2H -chromene]	6100	< 2000	1490 ± 70	16000 ± 1840 nM	–
CCOc1ccc(C2Oc3ccc(Br)cc3C=C2[N+](=O)[O-])cc1OCC (stereo not shown) [Compound 2, 6-Bromo-2-(3,4-diethoxyphenyl)-3-nitro-2H -chromene]	–	1440 ± 70	–	–	–
COc1ccc(C2Oc3c(cc(Br)cc3OC)C=C2[N+](=O)[O-])cc1OC (stereo not shown) [Compound 3, 6-Bromo-2-(3,4-dimethoxyphenyl)-8-methoxy-3-nitro-2H -chromene]	–	960 ± 20	–	17500 ± 1900 nM	–
COc1ccc(C2Oc3ccc(Br)cc3C=C2[N+](=O)[O-])cc1OC (stereo not shown) [Compound 4, 6-Bromo-2-(3,4-dimethoxyphenyl)-3-nitro-2H -chromene]	–	< 2000	1310 ± 150	16400 ± 1910 nM	–
COc1ccc(C2Oc3c(Br)cc(Br)cc3C=C2[N+](=O)[O-])cc1OC (stereo not shown) [Compound 5, 6,8-Dibromo-2-(3,4-dimethoxyphenyl)-3-nitro-2H -chromene]	–	640 ± 230	–	–	–
CCOc1ccc(C2Oc3c(Br)cc(Br)cc3C=C2[N+](=O)[O-])cc1OC (stereo not shown) [Compound 6, 6,8-Dibromo-2-(4-ethoxy-3-methoxyphenyl)-3-nitro-2H -chromene]	–	≥ 2000	2560 ± 260	18100 ± 240 nM	–
O=[N+]([O-])C1=Cc2cc(Br)cc(Br)c2OC1c1c(Cl)cccc1Cl (stereo not shown) [Compound 7, 2-(2,6-Dichlorophenyl)-6,8-dibromo-3-nitro-2H -chromene]	–	640 ± 20	–	11900 ± 510 nM	nanomolar efficacy
CCOc1ccc(C2Oc3c(cc(Br)cc3OC)C=C2[N+](=O)[O-])cc1OC (stereo not shown) [Compound 8, 6-Bromo-2-(4-ethoxy-3-methoxyphenyl)-8-methoxy-3-nitro-2H -chromene]	–	1850 ± 150	–	–	–
CCOc1ccc(C2Oc3c(Cl)cc(Cl)cc3C=C2[N+](=O)[O-])cc1OCC (stereo not shown) [Compound 9, 6,8-Dichloro-2-(3,4-diethoxyphenyl)-3-nitro-2H -chromene]	4800	–	–	17500 ± 1600 nM	–
CCOc1ccc(C2Oc3ccccc3C=C2[N+](=O)[O-])cc1OCC (stereo not shown) [Compound 10, 2-(3,4-Diethoxyphenyl)-3-nitro-2H -chromene]	–	2560 ± 260	–	9450 ± 2200 nM	–
O=[N+]([O-])C1=Cc2cc(Br)ccc2OC1c1ccccc1Cl (stereo not shown) [Compound 11, 6-Bromo-2-(2-chlorophenyl)-3-nitro-2H -chromene]	–	–	–	4120 nM and 4120 ± 1950 nM	nanomolar efficacy
O=[N+]([O-])C1=Cc2ccccc2OC1c1c(Cl)cccc1Cl (stereo not shown) [Compound 13, 2-(2,6-Dichlorophenyl)-3-nitro-2H -chromene]	–	3080 ± 80	–	–	–
